Data reported in patent publication US5510255A, “Plant fatty acid synthases” (priority 1993, dated 1996).

Experiments:
synthase I [1] = conditions: cited from earlier work
type-II synthase = biological target: T1, type-II synthase (Ricinus communis, UniProt Q41134); type: biochemical, R. communis
T1 construct: mature plastid protein
T1 sequence (Q41134 117-535): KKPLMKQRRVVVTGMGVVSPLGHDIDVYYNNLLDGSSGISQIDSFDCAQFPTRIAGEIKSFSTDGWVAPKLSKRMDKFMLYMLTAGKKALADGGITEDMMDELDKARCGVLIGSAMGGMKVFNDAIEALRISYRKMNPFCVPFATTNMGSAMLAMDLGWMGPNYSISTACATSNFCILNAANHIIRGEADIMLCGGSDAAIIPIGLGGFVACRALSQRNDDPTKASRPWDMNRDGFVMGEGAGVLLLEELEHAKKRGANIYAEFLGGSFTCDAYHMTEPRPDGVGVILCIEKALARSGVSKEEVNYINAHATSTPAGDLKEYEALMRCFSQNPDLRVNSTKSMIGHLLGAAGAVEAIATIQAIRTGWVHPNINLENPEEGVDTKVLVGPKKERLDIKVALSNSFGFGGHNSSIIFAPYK

synthase II [2] = assay: Cerulenin sensitivity of synthase II fraction from cellulose phosphate; type: biochemical, S. oleracea; conditions: 5 μM cerulenin, 15 minutes, room temperature
Experimental: (§1) Each enzyme source is incubated with 5 μM cerulenin for 15 minutes at room temperature before being assayed with each of the acyl-ACP substrates. After incubation with cerulenin, the decanoyl-ACP activity is reduced 99% in the cellulose phosphate flow-through fraction and only 69% in the synthase II fraction. The palmitoyl-ACP activity in the synthase II fraction is not inhibited by the cerulenin treatment.

type-I synthase = biological target: T2, type-I synthase (Ricinus communis, UniProt Q41135); assay: biochemical; design: species or system R. communis
T2 construct: mature plastid protein
T2 sequence (Q41135 43-469): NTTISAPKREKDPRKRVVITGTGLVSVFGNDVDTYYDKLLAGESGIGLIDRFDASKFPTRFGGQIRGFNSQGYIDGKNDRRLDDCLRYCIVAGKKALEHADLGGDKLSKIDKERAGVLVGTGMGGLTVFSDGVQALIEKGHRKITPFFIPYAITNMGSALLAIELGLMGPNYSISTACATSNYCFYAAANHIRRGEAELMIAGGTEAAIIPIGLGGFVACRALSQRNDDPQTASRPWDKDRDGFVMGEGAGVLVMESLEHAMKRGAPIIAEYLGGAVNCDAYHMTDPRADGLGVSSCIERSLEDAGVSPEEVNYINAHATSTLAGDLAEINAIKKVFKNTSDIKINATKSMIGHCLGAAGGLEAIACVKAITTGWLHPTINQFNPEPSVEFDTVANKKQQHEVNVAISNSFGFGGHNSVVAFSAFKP

synthase III = biological target: T3, synthase III (Arabidopsis thaliana, UniProt P49243); assay: Inhibition with cerulenin; type: biochemical
T3 sequence (P49243 44-404): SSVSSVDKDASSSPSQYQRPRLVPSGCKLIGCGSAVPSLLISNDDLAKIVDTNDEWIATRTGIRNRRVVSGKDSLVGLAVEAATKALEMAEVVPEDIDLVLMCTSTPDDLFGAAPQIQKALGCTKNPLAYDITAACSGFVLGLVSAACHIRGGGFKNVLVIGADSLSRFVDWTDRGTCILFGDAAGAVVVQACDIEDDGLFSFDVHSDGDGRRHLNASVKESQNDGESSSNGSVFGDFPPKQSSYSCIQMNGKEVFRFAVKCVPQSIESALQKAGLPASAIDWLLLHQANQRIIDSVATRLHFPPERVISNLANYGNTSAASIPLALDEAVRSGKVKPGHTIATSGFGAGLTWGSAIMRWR
Description: (§2) Other plant synthases may also find applicability by this invention, including synthase III type activities. Differences between synthases I, II, and III are also observed in inhibition with cerulenin. […] In FIG. 1, a time course assay of cerulenin effects on synthase I and synthase II activities is provided.

Synthase I [3] = biological target: T4, Synthase I (Arabidopsis thaliana, UniProt P52410); assay: Inhibition with cerulenin; type: biochemical
T4 sequence (P52410 47-473): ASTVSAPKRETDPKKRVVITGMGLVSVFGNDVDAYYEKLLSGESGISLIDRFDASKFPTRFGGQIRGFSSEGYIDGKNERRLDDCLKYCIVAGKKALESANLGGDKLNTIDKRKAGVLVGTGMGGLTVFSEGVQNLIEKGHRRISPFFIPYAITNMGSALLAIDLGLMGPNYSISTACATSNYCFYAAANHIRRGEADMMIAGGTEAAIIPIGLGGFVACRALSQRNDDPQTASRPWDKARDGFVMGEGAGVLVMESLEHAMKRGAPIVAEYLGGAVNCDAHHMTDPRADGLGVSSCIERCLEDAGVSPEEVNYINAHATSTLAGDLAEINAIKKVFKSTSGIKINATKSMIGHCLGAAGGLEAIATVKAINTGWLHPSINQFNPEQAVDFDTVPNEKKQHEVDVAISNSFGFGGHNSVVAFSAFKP
Description: as §2

synthase II [4] = biological target: T5, synthase II (Arabidopsis thaliana, UniProt Q9C9P4); assay: Inhibition with cerulenin; type: biochemical
T5 sequence (Q9C9P4 104-541): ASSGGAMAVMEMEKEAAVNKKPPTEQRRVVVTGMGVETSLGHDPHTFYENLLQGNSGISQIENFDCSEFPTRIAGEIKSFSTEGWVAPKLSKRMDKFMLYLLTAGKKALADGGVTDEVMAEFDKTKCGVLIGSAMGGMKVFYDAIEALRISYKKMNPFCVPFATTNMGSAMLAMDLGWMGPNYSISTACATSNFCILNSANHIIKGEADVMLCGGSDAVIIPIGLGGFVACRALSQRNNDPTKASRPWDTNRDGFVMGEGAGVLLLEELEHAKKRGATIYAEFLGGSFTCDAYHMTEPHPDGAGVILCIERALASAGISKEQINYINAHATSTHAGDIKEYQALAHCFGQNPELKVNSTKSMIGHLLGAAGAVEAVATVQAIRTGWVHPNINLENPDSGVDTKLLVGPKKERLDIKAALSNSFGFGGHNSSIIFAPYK
Description: as §2

synthase II [5] = conditions: cited from earlier work
synthase I [6] = tested on: T6, synthase I; assay: Cerulenin sensitivity of cellulose phosphate flow-through fraction; type: biochemical, S. oleracea; conditions: 0.25 h, 5 μM cerulenin, 15 minutes, room temperature, read-out: reduction of decanoyl-ACP activity
T6 construct: from tissue; host or cells: S. oleracea leaf, cellulose phosphate flow-through
Experimental: as §1

[7] = cerulenin concentrations above 50 μM

In the case of `C/C=C/C/C=C/CCC(=O)[C@H]1O[C@H]1C(N)=O` [cerulenin], the “reaction with active site of synthase I” value (synthase I [1]; 5 μM cerulenin) is listed as “reacts readily”, the “reaction with synthase I” value (synthase I [1]; [7]) is listed as “react readily” and the “sensitivity of activity with C16:0-ACP (type-II synthase) to cerulenin” value (type-II synthase) is listed as “virtually insensitive”. The “inhibition of palmitoyl-ACP activity” value (synthase II [2]) was “not inhibited”, the “reduction of decanoyl-ACP activity” value (synthase II [2]) was 69% and the “inactivation of type-I synthase” value (type-I synthase) was “completely inactivated”. For the same compound, the inhibition at 5 µM (type-I synthase; read-out: inhibition of activity with C10:0-ACP) was over 80%, the “sensitivity of synthase III to cerulenin” value (synthase III) was “least sensitive” and the “sensitivity of synthase I to cerulenin” value (Synthase I [3]) was “most sensitive”. The “sensitivity of synthase II to cerulenin” value (synthase II [4]) was “less sensitive”, the “reaction with active site of synthase II” value (synthase II [5]; 5 μM cerulenin) was “not synthase II” and the “reaction with synthase II” value (synthase II [5]; [7]) was “react readily”. The inhibition at 5 µM (synthase I [6]) was 99%.
